Results published in patent publication US8791148B2, “Substituted benzimidazolone derivatives, medicaments comprising them and their use” (AbbVie Deutschland GmbH & Co. KG, priority 2006, dated 2014).

Target: T1, human vasopressin V1b receptor (Homo sapiens, UniProt P47901)
T1 construct: expressed in transfected cells; host or cells: CHO-K1 (cell line hV1b-3H2_CHO), membrane preparation
T1 sequence (P47901 1-424): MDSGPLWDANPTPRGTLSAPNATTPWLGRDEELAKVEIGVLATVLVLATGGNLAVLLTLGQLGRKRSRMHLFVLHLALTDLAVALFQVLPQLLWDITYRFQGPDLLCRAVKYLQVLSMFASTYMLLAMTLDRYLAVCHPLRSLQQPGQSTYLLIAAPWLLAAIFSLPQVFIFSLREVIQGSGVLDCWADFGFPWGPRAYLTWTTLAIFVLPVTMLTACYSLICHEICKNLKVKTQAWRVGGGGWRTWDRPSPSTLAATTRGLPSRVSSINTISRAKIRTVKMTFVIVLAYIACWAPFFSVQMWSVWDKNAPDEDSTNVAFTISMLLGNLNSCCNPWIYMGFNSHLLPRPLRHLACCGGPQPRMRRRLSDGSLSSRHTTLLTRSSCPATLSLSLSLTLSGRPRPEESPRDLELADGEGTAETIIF
Assay: Vasopressin V1b receptor binding assay
Conditions: membranes from CHO-K1 cells with stably expressed human V1b receptors; displacement of 1.5 nM 3H-AVP; read-out: V1b receptor affinity (affinity constant Ki)
Description: Vasopressin V1b Receptor Binding Assay:
The test substances were dissolved in a concentration of 10^−2 M in DMSO and further diluted to 5×10^−4 M to 5×10^−9 M in DMSO. This series of DMSO predilutions was diluted 1:10 with assay buffer. The substance concentration was again diluted 1:5 in the assay mixture (2% DMSO in the mixture).
The membrane pellet was again homogenized and centrifuged as described and then taken up in 50 mM Tris-HCl, pH 7.4, homogenized and stored in aliquots frozen in liquid nitrogen at −190° C.
The incubation buffer was: 50 mM Tris, 10 mM MgCl2, 0.1% BSA, pH 7.4. […] The nonspecific binding was determined with 1 uM AVP (Bachem #H1780). All determinations were carried out as triplicate determinations. After incubation (60 minutes at room temperature), the free radioligand was removed by vacuum filtration (Skatron cell harvester 7000) through Wathman GF/B glass fiber filter mats, and the filters were transferred into scintillation vials. The liquid scintillation measurement took place in a Tricarb model 2000 or 2200CA instrument (Packard). Conversion of the measured cpm into dpm was carried out with the aid of a standard quench series.
The binding parameters were calculated by nonlinear regression in SAS.
The above assay was used to measure the affinities of the compounds of the invention for the human vasopressin V1b receptor and to determine the affinity constants (Ki).

| SMILES | Ki |
| --- | --- |
| COc1ccc(S(=O)(=O)n2c(=O)n(C(C(=O)N3CCC(n4ccnc4)CC3)c3ccccc3)c3cc(Cl)ccc32)cc1 (centres unmarked) [Example 88, 5-Chloro-3-[2-(4-imidazol-1-ylpiperidin-1-yl)-2-oxo-1-phenylethyl]-1-(4-methoxybenzenesulfonyl)-1,3-dihydrobenzimidazol-2-one] | 500 to 10000 nM |
| COc1ccc(S(=O)(=O)n2c(=O)n(C(C(=O)N3CC[C@H](CN4CCN(C)CC4)C3)c3ccccc3)c3cc(C#N)ccc32)cc1 (stereo partly drawn) [Example 236, 1-(4-Methoxy-benzenesulfonyl)-3-{2-[(R)-3-(4-methyl-piperazin-1-ylmethyl)-pyrrolidin-1-yl]-2-oxo-1-phenyl-ethyl}-2-oxo-2,3-dihydro-1H-benzoimidazole-5-carbonitrile; compound with trifluoroacetic acid] | < 100 nM |
| COc1ccc(S(=O)(=O)n2c(=O)n(C(C(=O)N3CC[C@H](NC4CCNCC4)C3)c3ccccc3)c3cc(Cl)ccc32)cc1 (stereo partly drawn) [Example 177, 5-Chloro-1-(4-methoxybenzenesulfonyl)-3-{2-oxo-1-phenyl-2-[(S)-3-(piperidin-4-ylamino)pyrrolidin-1-yl]ethyl}-1,3-dihydrobenzimidazol-2-one] | < 100 nM |
| COc1ccc(S(=O)(=O)n2c(=O)n(C(C(=O)N3CCC(N4CCNCC4)C3)c3ccccc3)c3cc(Cl)ccc32)cc1 (centres unmarked) [Example 146, 5-Chloro-1-(4-methoxybenzenesulfonyl)-3-[2-oxo-1-phenyl-2-(3-piperazin-1-ylpyrrolidin-1-yl)-ethyl]-1,3-dihydrobenzimidazol-2-one] | < 100 nM |
| COc1cccc(C(C(=O)N2CCN(C3CCN(C)CC3)CC2)n2c(=O)n(S(=O)(=O)c3ccc(C#N)cc3)c3ccc(Cl)cc32)c1 (centres unmarked) [Example 22, 4-(5-Chloro-3-{1-(3-methoxyphenyl)-2-[4-(1-methylpiperidin-4-yl)piperazin-1-yl]-2-oxoethyl}-2-oxo-2,3-dihydrobenzimidazol-1-sulfonyl)benzonitrile] | 100 to 500 nM |
| CCCN1CCN(CCNC(=O)C(c2ccccc2)n2c(=O)n(S(=O)(=O)c3ccc(OC)cc3)c3ccc(Cl)cc32)CC1 (centres unmarked) [Example 133, 2-[6-Chloro-3-(4-methoxybenzenesulfonyl)-2-oxo-2,3-dihydrobenzimidazol-1-yl]-2-phenyl-N-[2-(4-propylpiperazin-1-yl)-ethyl]-acetamide] | 100 to 500 nM |
| COc1ccc(S(=O)(=O)n2c(=O)n(C(C(=O)N3CCN(CC4CCCN(C)C4)CC3)c3ccccc3)c3cc(Cl)ccc32)cc1 (centres unmarked) [Example 96, 5-Chloro-1-(4-methoxybenzenesulfonyl)-3-{2-[4-(1-methylpiperidin-3-ylmethyl)piperazin-1-yl]-2-oxo-1-phenylethyl}-1,3-dihydrobenzimidazol-2-one] | 100 to 500 nM |
| COc1ccc(S(=O)(=O)n2c(=O)n(C(C(=O)N3CCCN(C)CC3)c3ccccc3)c3cc(Cl)ccc32)cc1 (centres unmarked) [Example 126, 5-Chloro-1-(4-methoxybenzenesulfonyl)-3-[2-(4-methyl-[1,4]diazepan-1-yl)-2-oxo-1-phenylethyl]-1,3-dihydrobenzoimidazol-2-one] | 100 to 500 nM |
| COc1ccc(S(=O)(=O)n2c(=O)n(C(C(=O)N3CC[C@H](N4CCN(Cc5ccccc5)CC4)C3)c3ccccc3)c3cc(Cl)ccc32)cc1 (stereo partly drawn) [Example 140, 3-{2-[(S)-3-(4-Benzylpiperazin-1-yl)pyrrolidin-1-yl]-2-oxo-1-phenylethyl}-5-chloro-1-(4-methoxybenzenesulfonyl)-1,3-dihydrobenzimidazol-2-one] | < 100 nM |
| COc1ccc(S(=O)(=O)n2c(=O)n(C(C(=O)N3CCC[C@H](N4CCNCC4)C3)c3ccccc3)c3cc(C#N)ccc32)cc1 (stereo partly drawn) [Example 195, 1-(4-Methoxybenzenesulfonyl)-2-oxo-3-[2-oxo-1-phenyl-2-((S)-3-piperazin-1-ylpiperidin-1-yl)ethyl]-2,3-dihydro-1H-benzimidazole-5-carbonitrile] | < 100 nM |
| N#Cc1ccc(S(=O)(=O)n2c(=O)n(C(C(=O)N3CCN(c4ccncc4)CC3)c3ccccc3)c3cc(Cl)c(Cl)cc32)cc1 (centres unmarked) [Example 62, 4-{5,6-Dichloro-2-oxo-3-[2-oxo-1-phenyl-2-(4-pyridin-4-ylpiperazin-1-yl)-ethyl]-2,3-dihydrobenzimidazol-1-sulfonyl}benzonitrile] | 500 to 10000 nM |
| COc1ccc(S(=O)(=O)n2c(=O)n(C(C(=O)N3CCC(NC4CCN(C)CC4)CC3)c3ccccc3)c3cc(C#N)ccc32)cc1 (centres unmarked) [Example 206, 1-(4-Methoxybenzenesulfonyl)-3-{2-[4-(1-methylpiperidin-4-ylamino)piperidin-1-yl]-2-oxo-1-phenylethyl}-2-oxo-2,3-dihydro-1H-benzimidazole-5-carbonitrile] | < 100 nM |
| CCCN1CCN(C2CCN(C(=O)C(c3ccccc3)n3c(=O)n(S(=O)(=O)c4ccc(OC)cc4)c4ccc(Cl)cc43)C2)CC1 (centres unmarked) [Example 91, 5-Chloro-1-(4-methoxybenzenesulfonyl)-3-{2-oxo-1-phenyl-2-[3-(4-propylpiperazin-1-yl)-pyrrolidin-1-yl]ethyl}-1,3-dihydrobenzimidazol-2-one] | < 100 nM |
| CN1CCC(N2CCN(C(=O)C(c3ccccc3)n3c(=O)n(S(=O)(=O)c4ccc(C#N)cc4)c4ccc(C#N)cc43)CC2)CC1 (centres unmarked) [Example 23, 1-(4-Cyanobenzenesulfonyl)-3-{2-[4-(1-methylpiperidin-4-yl)piperazin-1-yl]-2-oxo-1-phenylethyl}-2-oxo-2,3-dihydro-1H-benzimidazole-5-carbonitrile] | 500 to 10000 nM |
| CCCN1CCN(CCCNC(=O)C(c2ccccc2)n2c(=O)n(S(=O)(=O)c3ccc(OC)cc3)c3ccc(Cl)cc32)CC1 (centres unmarked) [Example 136, 2-[6-Chloro-3-(4-methoxybenzenesulfonyl)-2-oxo-2,3-dihydrobenzimidazol-1-yl]-2-phenyl-N-[3-(4-propylpiperazin-1-yl)propyl]-acetamide] | 100 to 500 nM |
| COc1ccc(S(=O)(=O)n2c(=O)n(C(C(=O)N[C@H]3CCNC3)c3ccccc3)c3cc(Cl)ccc32)cc1 (stereo partly drawn) [Example 173, 2-[6-Chloro-3-(4-methoxybenzenesulfonyl)-2-oxo-2,3-dihydrobenzimidazol-1-yl]-2-phenyl-N—(S)-pyrrolidin-3-ylacetamide] | 500 to 10000 nM |
| COc1ccc(S(=O)(=O)n2c(=O)n(C(C(=O)N3CCCC(N4CCN(C)CC4)C3)c3ccccc3)c3cc(Cl)ccc32)cc1 (centres unmarked) [Example 156, 5-Chloro-1-(4-methoxybenzenesulfonyl)-3-{2-[3-(4-methylpiperazin-1-yl)piperidin-1-yl]-2-oxo-1-phenylethyl}-1,3-dihydrobenzimidazol-2-one] | < 100 nM |
| COc1ccc(S(=O)(=O)n2c(=O)n(C(C(=O)N3CCCC(N4CCN(Cc5ccccc5)CC4)C3)c3ccccc3)c3cc(Cl)ccc32)cc1 (centres unmarked) [Example 139, 3-{2-[3-(4-Benzylpiperazin-1-yl)piperidin-1-yl]-2-oxo-1-phenylethyl}-5-chloro-1-(4-methoxybenzenesulfonyl)-1,3-dihydrobenzimidazol-2-one] | < 100 nM |
| COc1ccc(S(=O)(=O)n2c(=O)n(C(C(=O)N3CCC[C@@H](N)C3)c3ccccc3)c3cc(C#N)ccc32)cc1 (stereo partly drawn) [Example 241, 3-[2-((R)-3-Amino-piperidin-1-yl)-2-oxo-1-phenyl-ethyl]-1-(4-methoxybenzenesulfonyl)-2-oxo-2,3-dihydro-1H-benzoimidazole-5-carbonitrile] | 500 to 10000 nM |
| COc1ccc(S(=O)(=O)n2c(=O)n(C(C(=O)N3CCN(c4ccncc4)CC3)c3ccccc3)c3ccccc32)c(OC)c1 (centres unmarked) [Example 70, 1-(2,4-Dimethoxybenzenesulfonyl)-3-[2-oxo-1-phenyl-2-(4-pyridin-4-ylpiperazin-1-yl)ethyl]-1,3-dihydrobenzimidazol-2-one] | 500 to 10000 nM |
| CCN(CC)C(=O)C(c1ccccc1)n1c(=O)n(S(=O)(=O)c2ccc(OC)cc2)c2ccc(Cl)cc21 (centres unmarked) [Example 104, 2-[6-Chloro-3-(4-methoxybenzenesulfonyl)-2-oxo-2,3-dihydrobenzimidazol-1-yl]-N,N-diethyl-2-phenylacetamide] | 500 to 10000 nM |
| COc1ccc(S(=O)(=O)n2c(=O)n(C(C(=O)N3CC[C@H](N)C3)c3ccccc3)c3cc(Cl)ccc32)cc1 (stereo partly drawn) [Example 168, 3-[2-((S)-3-Aminopyrrolidin-1-yl)-2-oxo-1-phenylethyl]-5-chloro-1-(4-methoxybenzenesulfonyl)-1,3-dihydrobenzimidazol-2-one] | 100 to 500 nM |
| COc1cccc(C(C(=O)N2CCN(c3ccncc3)CC2)n2c(=O)n(S(=O)(=O)c3ccc(OC)cc3OC)c3ccc(Cl)cc32)c1 (centres unmarked) [Example 21, 5-Chloro-1-(2,4-dimethoxybenzenesulfonyl)-3-[1-(3-methoxyphenyl)-2-oxo-2-(4-pyridin-4-ylpiperazin-1-yl)-ethyl]-1,3-dihydrobenzimidazol-2-one] | 100 to 500 nM |
